Reference: patent US10035790B2, “RORγ modulators” (BRISTOL-MYERS SQUIBB COMPANY, priority 2012, dated 2018)

molecular target: T1, ligand binding domain of human RORγ (A262-S507) (Homo sapiens, UniProt P51449); assay: General RORγ SPA binding assay (competition with [3H]25-hydroxycholesterol); details: RORγ SPA binding assay, inhibition of [3H]25-hydroxycholesterol binding; read-out: IC50
T1 construct: made in house; host or cells: E. coli
T1 sequence (P51449 262-507): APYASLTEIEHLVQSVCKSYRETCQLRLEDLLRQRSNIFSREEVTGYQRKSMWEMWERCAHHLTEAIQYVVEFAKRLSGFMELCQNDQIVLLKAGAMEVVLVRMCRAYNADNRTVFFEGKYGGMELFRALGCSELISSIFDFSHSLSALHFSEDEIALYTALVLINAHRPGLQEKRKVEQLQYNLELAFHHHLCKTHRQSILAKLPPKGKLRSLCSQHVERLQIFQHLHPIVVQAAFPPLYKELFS
Procedure, shortened: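 N-terminally His-tagged protein was expressed in E. coli and nickel-purified. Then 50 nM protein was preincubated with compound for 15 min at room temperature in PBS with 0.5% fatty acid free BSA, followed by radioligand for 15 min and copper His-tag SPA beads for 30 min. IC50 came from percent inhibition of binding.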

Which IC50 does the source give for `C/C(=N\Oc1ccnc(C(F)(F)F)c1)c1cnc(N)nc1C1CCN(C(=O)Nc2c(F)cccc2F)CC1` [Compound B53, 4-{2-amino-5-[(1E)-N-{[2-(trifluoromethyl)pyridin-4-yl]oxy}ethanimidoyl]pyrimidin-4-yl}-N-(2,6-difluorophenyl)piperidine-1-carboxamide] here?
The IC50 was 0.0351 µM.

With `C/C(=N\Oc1ccnc(C(F)(F)F)n1)c1cnc(N)nc1C1CCN(C(=O)Nc2c(F)cccc2F)CC1` [Compound B54, 4-{2-Amino-5-[(1E)-N-{[2-(trifluoromethyl)pyrimidin-4-yl]oxy}ethanimidoyl]pyrimidin-4-yl}-N-(2,6-difluorophenyl)piperidine-1-carboxamide] as the molecule, how does the IC50 read?
Its IC50 is 0.168 µM.

For `C/C(=N\Oc1cc(Cl)nc(C(F)(F)F)c1)c1cnc(N)nc1C1CCN(C(=O)Nc2c(F)cccc2F)CC1` [Compound B55, 4-{2-Amino-5-[(1E)-N-{[2-chloro-6-(trifluoromethyl)pyridin-4-yl]oxy}ethanimidoyl]pyrimidin-4-yl}-N-(2,6-difluorophenyl)piperidine-1-carboxamide], which IC50 is on record?
The IC50 was 0.0058 µM.

Which IC50 does the source give for `C/C(=N\Oc1cc(F)nc(F)c1)c1cnc(N)nc1C1CCN(C(=O)Nc2c(F)cccc2F)CC1` [Compound B56, 4-(2-Amino-5-{(1E)-N-[(2,6-difluoropyridin-4-yl)oxy]ethanimidoyl}pyrimidin-4-yl)-N-(2,6-difluorophenyl)piperidine-1-carboxamide] here?
Its IC50 is 0.0318 µM.

`C/C(=N/Oc1cc(F)nc(F)c1)c1cnc(N)nc1C1CCN(C(=O)Nc2c(F)cccc2F)CC1` [Compound B57, 4-(2-Amino-5-{(1Z)—N-[(2,6-difluoropyridin-4-yl)oxy]ethanimidoyl}pyrimidin-4-yl)-N-(2,6-difluorophenyl)piperidine-1-carboxamide] was tested. Which IC50 did it give?
Its IC50 is 0.0927 µM.

How did the IC50 turn out when `CSc1ncc(/C(C)=N/Oc2ccnc(Cl)c2)c(C2CCN(C(=O)Nc3c(F)cccc3F)CC2)n1` [Compound B58, 4-[5-{(1E)-N-[(2-Chloropyridin-4-yl)oxy]ethanimidoyl}-2-(methylthio)pyrimidin-4-yl]-N-(2,6-difluorophenyl)piperidine-1-carboxamide] was run?
Its IC50 is 4.09 µM.

For `C/C(=N\Oc1ccnc(Cl)c1)c1cnc(N)nc1C1CCN(C(=O)Nc2c(F)cccc2F)CC1` [Compound B59, 4-(2-Amino-5-{(1E)-N-[(2-chloropyridin-4-yl)oxy]ethanimidoyl}pyrimidin-4-yl)-N-(2,6-difluorophenyl)piperidine-1-carboxamide], which IC50 is on record?
Its IC50 is 0.0491 µM.

`CCNc1ncc(/C(C)=N/Oc2ccnc(C(F)(F)F)c2)c(C2CCN(C(=O)Nc3c(F)cccc3F)CC2)n1` [Compound B60, N-(2,6-Difluorophenyl)-4-{2-(ethylamino)-5-[(1E)-N-{[2-(trifluoromethyl)pyridin-4-yl]oxy}ethanimidoyl]pyrimidin-4-yl}piperidine-1-carboxamide] was tested. Which IC50 did it give?
The IC50 was 0.115 µM.

`C/C(=N\Oc1ccnc(C(F)(F)F)c1)c1cnc(N(C)C)nc1C1CCN(C(=O)Nc2c(F)cccc2F)CC1` [Compound B61, N-(2,6-Difluorophenyl)-4-{2-(dimethylamino)-5-[(1E)-N-{[2-(trifluoromethyl)pyridin-4-yl]oxy}ethanimidoyl]pyrimidin-4-yl}piperidine-1-carboxamide] was tested. Which IC50 did it give?
Its IC50 is 0.367 µM.

Which IC50 does the source give for `Cc1nc(C)c(-c2nc(-c3cccc(C(F)(F)F)c3)no2)c(C2CCN(C(=O)Cc3c(F)cccc3F)CC2)n1` [Compound C1, 4-{1-[(2,6-Difluorophenyl)acetyl]piperidin-4-yl}-2,6-dimethyl-5-{3-[3-(trifluoromethyl)phenyl]-1,2,4-oxadiazol-5-yl}pyrimidine] here?
Its IC50 is 0.114 µM.

`Cc1nc(C)c(-c2nc(-c3ccc(F)cc3)no2)c(C2CCN(C(=O)Cc3c(F)cccc3F)CC2)n1` [Compound C2, 2-(2,6-difluorophenyl)-1-(4-(5-(3-(4-fluorophenyl)-1,2,4-oxadiazol-5-yl)-2,6-dimethylpyrimidin-4-yl)piperidin-1-yl)ethanone] was tested. Which IC50 did it give?
The IC50 was 0.337 µM.

`Cc1nc(C)c(-c2nc(Cc3ccc(F)cc3)no2)c(C2CCN(C(=O)Cc3c(F)cccc3F)CC2)n1` [Compound C3, 2-(2,6-difluorophenyl)-1-(4-(5-(3-(4-fluorobenzyl)-1,2,4-oxadiazol-5-yl)-2,6-dimethylpyrimidin-4-yl)piperidin-1-yl)ethanone] was tested. Which IC50 did it give?
The IC50 was 0.606 µM.

Which IC50 does the source give for `Cc1nc(C)c(-c2nc(-c3cccc(Cl)c3)no2)c(C2CCN(C(=O)Cc3c(F)cccc3F)CC2)n1` [Compound C4, 1-(4-(5-(3-(3-chlorophenyl)-1,2,4-oxadiazol-5-yl)-2,6-dimethylpyrimidin-4-yl)piperidin-1-yl)-2-(2,6-difluorophenyl)ethanone] here?
The IC50 was 0.62 µM.

With `Cc1nc(C)c(-c2nnc(-c3ccnc(C(F)(F)F)n3)o2)c(C2CCN(C(=O)Cc3c(F)cccc3F)CC2)n1` [Compound C5, 4-{1-[(2,6-Difluorophenyl)acetyl]piperidin-4-yl}-2,6-dimethyl-5-{5-[2-(trifluoromethyl)pyrimidin-4-yl]-1,3,4-oxadiazol-2-yl}pyrimidine] as the molecule, how does the IC50 read?
Its IC50 is 0.0063 µM.

For `Cc1nc(C)c(-c2nnc(-c3cccc(C(F)(F)F)n3)o2)c(C2CCN(C(=O)Cc3c(F)cccc3F)CC2)n1` [Compound C6, 2-(2,6-difluorophenyl)-1-(4-(2,6-dimethyl-5-(5-(6-(trifluoromethyl)pyridin-2-yl)-1,3,4-oxadiazol-2-yl)pyrimidin-4-yl)piperidin-1-yl)ethanone], which IC50 is on record?
Its IC50 is 0.0052 µM.

How did the IC50 turn out when `Cc1cc(-c2nnc(-c3c(C)nc(C)nc3C3CCN(C(=O)Cc4c(F)cccc4F)CC3)o2)cc(Cl)n1` [Compound C19, 1-(4-(5-(5-(2-chloro-6-methylpyridin-4-yl)-1,3,4-oxadiazol-2-yl)-2,6-dimethylpyrimidin-4-yl)piperidin-1-yl)-2-(2,6-difluorophenyl)ethanone] was run?
Its IC50 is 0.269 µM.

For `Cc1nc(C)c(-c2nnc(-c3ccc(Cl)cn3)o2)c(C2CCN(C(=O)Cc3c(F)cccc3F)CC2)n1` [Compound C20, 1-(4-(5-(5-(5-chloropyridin-2-yl)-1,3,4-oxadiazol-2-yl)-2,6-dimethylpyrimidin-4-yl)piperidin-1-yl)-2-(2,6-difluorophenyl)ethanone], which IC50 is on record?
Its IC50 is 0.657 µM.

`Cc1nc(C)c(-c2nnc(-c3cc(Cl)ccn3)o2)c(C2CCN(C(=O)Cc3c(F)cccc3F)CC2)n1` [Compound C21, 1-(4-(5-(5-(4-chloropyridin-2-yl)-1,3,4-oxadiazol-2-yl)-2,6-dimethylpyrimidin-4-yl)piperidin-1-yl)-2-(2,6-difluorophenyl)ethanone] was tested. Which IC50 did it give?
Its IC50 is 3.01 µM.

With `Cc1nc(C)c(-c2nnc(-c3ccnc(Cl)c3)o2)c(C2CCN(C(=O)Cc3c(F)cccc3F)CC2)n1` [Compound C22, 1-(4-(5-(5-(2-chloropyridin-4-yl)-1,3,4-oxadiazol-2-yl)-2,6-dimethylpyrimidin-4-yl)piperidin-1-yl)-2-(2,6-difluorophenyl)ethanone] as the molecule, how does the IC50 read?
Its IC50 is 3.96 µM.

`Cc1nc(C)c(-c2nnc(-c3ccc(Cl)nc3)o2)c(C2CCN(C(=O)Cc3c(F)cccc3F)CC2)n1` [Compound C23, 1-(4-(5-(5-(6-chloropyridin-3-yl)-1,3,4-oxadiazol-2-yl)-2,6-dimethylpyrimidin-4-yl)piperidin-1-yl)-2-(2,6-difluorophenyl)ethanone] was tested. Which IC50 did it give?
Its IC50 is 5.29 µM.

Which IC50 does the source give for `Cc1nc(C)c(-c2nnc(-c3ccnc(C(F)(F)F)n3)o2)c(C2CCN(C(=O)c3c(F)cccc3F)CC2)n1` [Compound C24, 4-{1-[(2,6-Difluorophenyl)carbonyl]piperidin-4-yl}-2,6-dimethyl-5-{5-[2-(trifluoromethyl)pyrimidin-4-yl]-1,3,4-oxadiazol-2-yl}pyrimidine] here?
Its IC50 is 0.277 µM.

With `Cc1nc(C)c(-c2nnc(-c3ccnc(C(F)(F)F)n3)o2)c(C2CCN(C(=O)Cc3ccccc3F)CC2)n1` [Compound C25, 1-(4-(2,6-dimethyl-5-(5-(2-(trifluoromethyl)pyrimidin-4-yl)-1,3,4-oxadiazol-2-yl)pyrimidin-4-yl)piperidin-1-yl)-2-(2-fluorophenyl)ethanone] as the molecule, how does the IC50 read?
The IC50 was 0.0231 µM.

How did the IC50 turn out when `Cc1nc(C)c(-c2nnc(-c3ccnc(C(F)(F)F)n3)o2)c(C2CCN(C(=O)C(C)c3c(F)cccc3F)CC2)n1` (stereo not drawn) [Compound C26, 2-(2,6-difluorophenyl)-1-(4-(2,6-dimethyl-5-(5-(2-(trifluoromethyl)pyrimidin-4-yl)-1,3,4-oxadiazol-2-yl)pyrimidin-4-yl)piperidin-1-yl)propan-1-one] was run?
The IC50 was 0.235 µM.

Which IC50 does the source give for `Cc1nc(C)c(-c2nnc(-c3ccnc(C(F)(F)F)n3)o2)c(C2CCN(C(=O)c3c(F)cccc3Cl)CC2)n1` [Compound C27, (2-chloro-6-fluorophenyl)(4-(2,6-dimethyl-5-(5-(2-(trifluoromethyl)pyrimidin-4-yl)-1,3,4-oxadiazol-2-yl)pyrimidin-4-yl)piperidin-1-yl)methanone] here?
The IC50 was 0.461 µM.

With `Cc1nc(C)c(-c2nnc(-c3ccnc(C(F)(F)F)n3)o2)c(C2CCN(C(=O)Nc3c(F)cccc3F)CC2)n1` [Compound C28, N-(2,6-Difluorophenyl)-4-(2,6-dimethyl-5-{5-[2-(trifluoromethyl)pyrimidin-4-yl]-1,3,4-oxadiazol-2-yl}pyrimidin-4-yl)piperidine-1-carboxamide] as the molecule, how does the IC50 read?
Its IC50 is 0.0652 µM.

How did the IC50 turn out when `Cc1nc(C)c(-c2nnc(-c3ccnc(C(F)(F)F)n3)o2)c(C2CCN(C(=O)Nc3ccccc3Cl)CC2)n1` [Compound C29, N-(2-chlorophenyl)-4-(2,6-dimethyl-5-{5-[2-(trifluoromethyl)pyrimidin-4-yl]-1,3,4-oxadiazol-2-yl}pyrimidin-4-yl)piperidine-1-carboxamide] was run?
The IC50 was 0.158 µM.

How did the IC50 turn out when `Cc1nc(C)c(-c2nnc(-c3ccnc(C(F)(F)F)n3)o2)c(C2CCN(C(=O)Nc3ccccc3C(F)(F)F)CC2)n1` [Compound C30, 4-(2,6-dimethyl-5-{5-[2-(trifluoromethyl)pyrimidin-4-yl]-1,3,4-oxadiazol-2-yl}pyrimidin-4-yl)-N-[2-(trifluoromethyl)phenyl]piperidine-1-carboxamide] was run?
The IC50 was 0.0497 µM.
